Patent US20110237448A1, “CARBOHYDRATE BINDING MODULE WITH AFFINITY FOR INSOLUBLE XYLAN” (The Board of Trustees of the University of Illinois, priority 2009, published 2011)
Numbering of substitutions follows the chain as printed. “Also recorded” adds a separate entry of the source.

Key:
[1] = target: T1, Fibrobacter succinogenes S85 acetylxylan esterase FSUAxe6B (Axe6B, FSU2267), wild-type (WT), SEQ ID NO: 31 (Fibrobacter succinogenes, UniProt C9RS24); assay: Steady state kinetic analysis of acetylxylan esterase activity, FSUAxe6B wild-type (WT); format: biochemical; settings: tetra-acetyl-xylopyranoside as substrate, 37° C.
T1 sequence (C9RS24 30-552): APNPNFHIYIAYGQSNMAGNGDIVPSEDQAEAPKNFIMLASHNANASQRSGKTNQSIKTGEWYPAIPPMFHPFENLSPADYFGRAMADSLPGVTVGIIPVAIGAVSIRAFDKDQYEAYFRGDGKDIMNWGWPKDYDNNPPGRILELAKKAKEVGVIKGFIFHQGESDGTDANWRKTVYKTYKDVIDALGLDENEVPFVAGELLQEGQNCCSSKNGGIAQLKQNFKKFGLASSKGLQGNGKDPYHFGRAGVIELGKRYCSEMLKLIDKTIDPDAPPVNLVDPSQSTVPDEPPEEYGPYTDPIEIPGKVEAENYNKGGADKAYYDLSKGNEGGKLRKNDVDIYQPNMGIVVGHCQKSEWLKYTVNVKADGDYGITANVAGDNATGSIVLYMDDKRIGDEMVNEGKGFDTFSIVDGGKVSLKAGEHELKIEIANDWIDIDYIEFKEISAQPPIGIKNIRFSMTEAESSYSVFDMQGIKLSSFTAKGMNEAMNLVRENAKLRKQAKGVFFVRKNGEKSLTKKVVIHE
Experimental: Assays were carried out at 37° C. Five microliters of 1 μM enzyme and 20 μl of R2 enzyme solution (containing acetate kinase, pyruvate kinase, and […] in 100 mM Tris-HCl, pH 7.4, 3 mM MgCl2) were thoroughly mixed. The tetra-acetyl-xylopyranoside was prepared in […] of R1 solution (NADH, ATP, phospho-enol-pyruvate, and pyruvate). The concentrations of the ingredients R1 and R2 solutions were pre-determined by the manufacturer (Megazyme). Both solutions were incubated separately at 37° C. for 3 min to allow equilibration, and then mixed to start the reaction. Initial rates were plotted against the tetra-acetyl-xylopyranoside concentrations, and the kinetic parameters were determined by Michaelis-Menten equation utilizing Graph Pad Prism v5.01.
Enzyme assays and steady state kinetics—Acetylxylan esterase activity was assayed using tetra-acetyl-xylopyranoside (Toronto Research Chemicals Inc., Ontario, Canada) for all proteins in this study, and the released of acetic acid was measured using an acetic acid detection kit (Megazyme, Bray, Ireland) following the manufacturer's instructions. The reduction of NADH was monitored continuously at an absorbance of 340 nm using Synergy 2 Microplate reader (BioTek, Winooski, Vt.) using the path-length correction feature. All assays were carried out at 37° C. […]

[2] = target: T2, Fibrobacter succinogenes S85 FSUAxe6B truncational mutant TM1 (CE6+CBM6) (Fibrobacter succinogenes, UniProt C9RS24); assay: Steady state kinetic analysis, truncational mutant TM1; format: biochemical; settings: tetra-acetyl-xylopyranoside as substrate, 37° C.
T2 construct: primers F1/R2, modified pET-28a, E. coli BL21(DE3), purified
T2 sequence (C9RS24 30-479 limits assumed): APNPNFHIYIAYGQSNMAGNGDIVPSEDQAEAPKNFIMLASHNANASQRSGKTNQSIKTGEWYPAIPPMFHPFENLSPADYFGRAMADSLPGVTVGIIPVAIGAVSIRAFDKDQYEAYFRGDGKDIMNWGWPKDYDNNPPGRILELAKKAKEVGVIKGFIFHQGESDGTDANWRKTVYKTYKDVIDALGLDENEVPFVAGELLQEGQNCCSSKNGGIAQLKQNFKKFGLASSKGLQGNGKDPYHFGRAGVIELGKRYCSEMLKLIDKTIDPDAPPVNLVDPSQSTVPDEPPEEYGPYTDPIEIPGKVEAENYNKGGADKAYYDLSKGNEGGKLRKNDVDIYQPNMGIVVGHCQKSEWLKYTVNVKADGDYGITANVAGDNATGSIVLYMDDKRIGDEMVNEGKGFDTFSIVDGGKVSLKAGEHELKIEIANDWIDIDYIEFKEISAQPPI
Description: (§1) To delineate and investigate the modules present in FSUAxe6B for functional role assignments, a gene truncation strategy was adopted. To create the truncated proteins, the glycines in loop regions were selected as the terminal amino acids of our constructs. The construct TM1 (CE6+CBM6) was designed to investigate the contribution of FPd-1 to the wild-type (WT) protein in terms of its catalytic (esterase) and carbohydrate binding activities. Likewise, TM2 (CE6) was constructed for identifying the role of the putative CBM6 on the two potential functions of the protein. […]
(§2) Assays were carried out at 37° C. […] The concentrations of the ingredients R1 and R2 solutions were pre-determined by the manufacturer (Megazyme). […] Initial rates were plotted against the tetra-acetyl-xylopyranoside concentrations, and the kinetic parameters were determined by Michaelis-Menten equation utilizing Graph Pad Prism v5.01.
(§3) Enzyme assays and steady state kinetics—Acetylxylan esterase activity was assayed using tetra-acetyl-xylopyranoside (Toronto Research Chemicals Inc., Ontario, Canada) for all proteins in this study, and the released of acetic acid was measured using an acetic acid detection kit (Megazyme, Bray, Ireland) following the manufacturer's instructions. […] The concentrations of the ingredients R1 and R2 solutions were pre-determined by the manufacturer (Megazyme). […]

[3] = target: T3, Fibrobacter succinogenes S85 FSUAxe6B truncational mutant TM2 (CE6) (Fibrobacter succinogenes, UniProt C9RS24); assay: Steady state kinetic analysis, truncational mutant TM2; format: biochemical; settings: tetra-acetyl-xylopyranoside as substrate, 37° C., means ± standard errors
T3 construct: primers F1/R3, modified pET-28a, E. coli BL21(DE3), purified
T3 sequence (C9RS24 30-297): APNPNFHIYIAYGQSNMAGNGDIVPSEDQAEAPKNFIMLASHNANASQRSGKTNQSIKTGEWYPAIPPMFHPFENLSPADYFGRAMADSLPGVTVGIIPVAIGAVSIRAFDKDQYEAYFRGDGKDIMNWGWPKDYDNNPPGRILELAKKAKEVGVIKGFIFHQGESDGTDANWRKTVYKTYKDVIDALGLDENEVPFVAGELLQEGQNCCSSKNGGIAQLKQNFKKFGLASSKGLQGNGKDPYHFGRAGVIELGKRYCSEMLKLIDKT
Description: as §1, §2, §3

[4] = target: T4, Fibrobacter succinogenes S85 FSUAxe6B variant E194N (Fibrobacter succinogenes, UniProt C9RS24, E194N); assay: Steady state kinetic analysis, E194N mutant; format: biochemical; settings: tetra-acetyl-xylopyranoside as substrate, 37° C., 10 μM E194N protein
T4 sequence (C9RS24 30-552 E194N): T1 sequence (C9RS24 30-552) with E165N
Experimental: (§4) Site-directed mutagenesis—Site-directed mutagenesis was carried out using the QuikChange Multi Site-Directed Mutagenesis Kit (Stratagene), according to the manufacturer's instructions.
(§5) Enzyme assays and steady state kinetics—Acetylxylan esterase activity was assayed using tetra-acetyl-xylopyranoside (Toronto Research Chemicals Inc., Ontario, Canada) for all proteins in this study, and the released of acetic acid was measured using an acetic acid detection kit (Megazyme, Bray, Ireland) following the manufacturer's instructions. The reduction of NADH was monitored continuously at an absorbance of 340 nm using Synergy 2 Microplate reader (BioTek, Winooski, Vt.) using the path-length correction feature. All assays were carried out at 37° C. […] The concentrations of the ingredients R1 and R2 solutions were pre-determined by the manufacturer (Megazyme). […] For active-site mutants with lower activity, the kinetic parameters were determined at a concentration of 10 μM for E194N protein and 2 μM for E194A, D270N, and D270A proteins, respectively. Initial rates were plotted against the tetra-acetyl-xylopyranoside concentrations, and the kinetic parameters were determined by Michaelis-Menten equation utilizing Graph Pad Prism v5.01.

[5] = target: T5, Fibrobacter succinogenes S85 FSUAxe6B variant E194A (Fibrobacter succinogenes, UniProt C9RS24, E194A); assay: Steady state kinetic analysis, E194A mutant; format: biochemical; settings: tetra-acetyl-xylopyranoside as substrate, 37° C., 2 μM E194A protein
T5 sequence (C9RS24 30-552 E194A): T1 sequence (C9RS24 30-552) with E165A
Experimental: as §4, §5

[6] = target: T6, Fibrobacter succinogenes S85 FSUAxe6B variant D270A (Fibrobacter succinogenes, UniProt C9RS24, D270A); assay: Steady state kinetic analysis, D270A mutant; format: biochemical; settings: tetra-acetyl-xylopyranoside as substrate, 37° C., 2 μM D270A protein
T6 sequence (C9RS24 30-552 D270A): T1 sequence (C9RS24 30-552) with D241A
Experimental: as §4, §5

[7] = tested on: Fibrobacter succinogenes S85 acetylxylan esterase Axe6A; settings: from ref. 16; substrate not stated at the place; cited from earlier work
[8] = tested on: Fibrobacter succinogenes S85 acetylxylan esterase Axe6B; settings: comparison with Axe6A; substrate not stated at the place; cited from earlier work
[9] = target: Fibrobacter succinogenes S85 FSUAxe6B truncational mutant TM5 (FPd-1 domain), SEQ ID NO: 2 (Fibrobacter succinogenes, UniProt C9RS24); assay: Isothermal titration calorimetric (ITC) analysis of TM5 (FPd-1 domain); format: binding; settings: 25° C., 100 μM protein, 50 mM Na2HPO4—HCl buffer pH 7.0, 100 mM NaCl
Experimental: Isothermal titration calorimetric analysis was conducted to determine whether the FPd-1 domain can bind to soluble substrates. TM5 was tested for binding with arabinoxylan, xylobiose, and xylopentaose (FIG. 10). If there is binding affinity between two materials, a binding heat that follows a pattern such as that for CaCl2 vs. EDTA in the positive control will be observed.
For isothermal titration calorimetric (ITC) analysis, measurements were performed at 25° C. using a VP-ITC calorimeter (MicroCal, Inc, Northhampton, Mass.) following the manufacturer's recommended procedures. All samples were extensively dialyzed against 50 mM Na2HPO4—HCl buffer (pH 7.0), 100 mM NaCl, and all ligands were dissolved in the same buffer. The protein sample (100 μM) was injected with successive 10-μl aliquots of ligand at 300-s intervals.

Row | Compound | kcat/Km [1] | kcat ([1]; means ± standard errors) | kcat/Km [2] | kcat [3] | kcat [4] | kcat/Km [4] | kcat [5] | kcat/Km [5] | kcat [6] | kcat/Km [6] | Km [7] | Km [8] | ITC binding [9]
1 | CC(=O)O[C@@H]1OC[C@@H](OC(C)=O)[C@H](OC(C)=O)[C@H]1OC(C)=O [tetra-acetyl-xylopyranoside] | 190000 M⁻¹ s⁻¹ | 15 s⁻¹ | 170000 M⁻¹ s⁻¹ | 13 s⁻¹ | 2.8 s⁻¹ | 400 M⁻¹ s⁻¹ | 2.9 s⁻¹ | 14000 M⁻¹ s⁻¹ | 1.8 s⁻¹ | 9000 M⁻¹ s⁻¹ | 80 µM | 60 µM | 
2 | OC1OC[C@@H](O[C@@H]2OC[C@@H](O)[C@H](O)[C@H]2O)[C@H](O)[C@H]1O (some centres unmarked) [xylobiose] |  |  |  |  |  |  |  |  |  |  |  |  | no significant peaks were observed; also recorded: does not bind
3 | OC1OC[C@@H](O[C@@H]2OC[C@@H](O[C@@H]3OC[C@@H](O[C@@H]4OC[C@@H](O[C@@H]5OC[C@@H](O)[C@H](O)[C@H]5O)[C@H](O)[C@H]4O)[C@H](O)[C@H]3O)[C@H](O)[C@H]2O)[C@H](O)[C@H]1O (some centres unmarked) [xylopentaose] |  |  |  |  |  |  |  |  |  |  |  |  | no significant peaks were observed; also recorded: does not bind
